# From patent US20200354404A1, “PEPT[…], […] AND USES THEREOF” (priority 2019, published 2020)
# “And” between values parts separate entries of the source, which are not always exact repeats. Equal entries are not always repeated. Where two headings read alike, the source gives them in different places. Where no end group is shown, it is not given here.
# How the values were obtained:
# [1] = target: IRTK (Homo sapiens, UniProt P06213); settings: Kato et al. 2009; cited from earlier work
# [2] = Stability of endomorphin-2 in mouse serum; type: in vitro ADME; settings: read-out: amount (AUC O.D.254) in mouse serum less than amount originally placed
# Description: In addition, as the result of the rapid hydrolysis and enzymatic degradation, a number of peptides are not stable enough to be used in drug discovery, diagnosis, prevention and treatment of diseases.
# A graph of stability of EM2 and K763 in mice serum is depicted in FIG. 11.
# [3] = iv 1 mg/kg
# [4] = Animal studies (protection); settings: in vivo
# [5] = in vivo; settings: male, Sprague-Dawley, rat, 1 mg/kg; for AUC(0-t): AUClast; for AUC(0-t) / MRT last: iv 1 mg/kg; for MRT last: MRTlast
# [6] = system: HMGB1-induced TNF secretion; assay: HMGB1-induced TNF secretion; type: cell-based; settings: FIG. 7
# [7] = system: mice; assay: APAP-induced cytokines, liver enzymes and lethality in mice; type: in vivo
# [8] = in vitro; settings: mouse, mouse serum
# [9] = cited from earlier work
# [10] = in vitro; settings: mouse, serum
# Description: Stability of Bradykinin amide and (1-9)-Aza-Bradykinin in serum was measured.
# [11] = target: OPRM-1 receptor (Homo sapiens, UniProt P35372); assay: Binding to OPRM-1; settings: FIG. 10
# OPRM-1 receptor, sequence (P35372 whole entry): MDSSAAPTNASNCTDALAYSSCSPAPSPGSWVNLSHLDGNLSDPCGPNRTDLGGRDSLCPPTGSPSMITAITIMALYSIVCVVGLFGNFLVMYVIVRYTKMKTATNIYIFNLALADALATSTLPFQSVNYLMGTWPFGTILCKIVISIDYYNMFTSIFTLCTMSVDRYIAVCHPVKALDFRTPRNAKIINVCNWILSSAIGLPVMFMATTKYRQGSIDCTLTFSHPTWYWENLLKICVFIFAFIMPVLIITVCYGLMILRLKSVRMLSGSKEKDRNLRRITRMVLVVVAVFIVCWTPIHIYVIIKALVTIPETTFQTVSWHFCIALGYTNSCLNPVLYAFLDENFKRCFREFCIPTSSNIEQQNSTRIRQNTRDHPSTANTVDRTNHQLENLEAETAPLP
# Description: FIG. 10 are graphs depicting binding of K763 and Endomorphin-2 binding to OPRM-1.
# The binding is depicted in FIG. 10.
# IRTK, sequence (P06213 28-1382): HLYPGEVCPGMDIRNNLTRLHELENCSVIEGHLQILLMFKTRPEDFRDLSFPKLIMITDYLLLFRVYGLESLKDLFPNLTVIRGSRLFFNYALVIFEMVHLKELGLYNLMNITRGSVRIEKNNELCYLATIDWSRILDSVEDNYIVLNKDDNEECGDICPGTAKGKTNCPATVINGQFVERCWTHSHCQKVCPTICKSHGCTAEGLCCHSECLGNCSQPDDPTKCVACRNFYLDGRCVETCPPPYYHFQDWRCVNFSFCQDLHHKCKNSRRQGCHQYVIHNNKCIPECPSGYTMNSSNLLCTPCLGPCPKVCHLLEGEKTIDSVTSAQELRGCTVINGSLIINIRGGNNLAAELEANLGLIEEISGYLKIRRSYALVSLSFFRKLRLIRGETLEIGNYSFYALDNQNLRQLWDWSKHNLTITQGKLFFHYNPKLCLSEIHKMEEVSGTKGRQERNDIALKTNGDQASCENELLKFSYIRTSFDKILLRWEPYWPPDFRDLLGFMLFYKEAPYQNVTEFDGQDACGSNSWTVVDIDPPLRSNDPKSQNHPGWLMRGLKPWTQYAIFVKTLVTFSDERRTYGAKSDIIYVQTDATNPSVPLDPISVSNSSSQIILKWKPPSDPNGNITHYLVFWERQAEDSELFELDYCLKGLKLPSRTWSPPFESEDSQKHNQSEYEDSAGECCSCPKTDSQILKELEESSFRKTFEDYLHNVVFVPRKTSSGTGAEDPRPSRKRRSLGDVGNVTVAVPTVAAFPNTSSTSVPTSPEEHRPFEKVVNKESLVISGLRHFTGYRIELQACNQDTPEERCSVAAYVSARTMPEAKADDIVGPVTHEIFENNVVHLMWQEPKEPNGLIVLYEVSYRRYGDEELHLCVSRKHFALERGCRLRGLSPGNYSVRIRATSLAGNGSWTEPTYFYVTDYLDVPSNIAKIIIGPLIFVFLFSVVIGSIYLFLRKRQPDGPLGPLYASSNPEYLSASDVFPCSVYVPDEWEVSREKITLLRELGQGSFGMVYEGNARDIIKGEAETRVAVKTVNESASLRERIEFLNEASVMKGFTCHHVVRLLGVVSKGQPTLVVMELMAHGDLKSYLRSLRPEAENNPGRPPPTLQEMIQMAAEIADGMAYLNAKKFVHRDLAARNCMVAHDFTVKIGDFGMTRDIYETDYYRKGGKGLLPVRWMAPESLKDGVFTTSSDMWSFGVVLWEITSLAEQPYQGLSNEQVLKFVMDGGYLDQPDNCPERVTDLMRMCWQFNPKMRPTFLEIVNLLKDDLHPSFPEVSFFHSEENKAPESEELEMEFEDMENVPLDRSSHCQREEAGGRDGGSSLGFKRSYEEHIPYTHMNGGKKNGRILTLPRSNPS
compound,measurement,setting,value
Ac-Asp1-Ile2-Tyr3-Glu4-Thr5-NH2,IRTK phosphorylation (in words),[1],inhibit
NC(=O)C(Cc1ccccc1)NC(=O)C(Cc1ccccc1)NC(=O)[C@@H]1CCCN1C(=O)C(N)Cc1ccc(O)cc1 (stereo partly drawn) [Endomorphin-2],metabolised at 2 h,[2],~95%
NC(=O)N(CCC(=O)O)NC(=O)[C@H](CO)NC(=O)[C@H](CO)NC(=O)N(N)Cc1ccccc1 [K883],Plasma concentration,"[3]; 0.50 hr, individual rats, 1 mg/kg",3020 ng/mL and 2500 ng/mL and 3220 ng/mL
same,Plasma concentration,"[3]; 1.0 hr, individual rats, 1 mg/kg",814 ng/mL and 1160 ng/mL and 1300 ng/mL
same,Plasma concentration,"[3]; 2.0 hr, individual rats, 1 mg/kg",133 ng/mL and 130 ng/mL and 142 ng/mL
same,Plasma concentration,"[3]; 4.0 hr, individual rats, 1 mg/kg",17.0 ng/mL and 15.1 ng/mL and 17.1 ng/mL
same,Plasma concentration,"[3]; 6.0 hr, individual rats, 1 mg/kg",6.49 ng/mL and 4.04 ng/mL and 4.77 ng/mL
same,Plasma concentration,"[3]; 8.0 hr, individual rats, 1 mg/kg",2.0 ng/mL and 0.871 ng/mL and 1.68 ng/mL
same,tmax,[3]; individual rats,0 h
same,AUClast,"[3]; individual rats, 1 mg/kg",3807 ng·h/mL and 3749 ng·h/mL
same,"tmax, Mean",[3]; mean of 3 rats,0 h
same,protection in animal studies (in words),[4],protective
same,half-life,[5]; in vivo half-life,> 69 min
same,level at 0.5 h,[5]; iv,2910 ng/mL
same,level at 1 h,[5]; iv,1090 ng/mL
same,level at 2 h,[5]; iv,135 ng/mL
same,level at 4 h,[5]; iv,16.6 ng/mL
same,level at 6 h,[5]; iv,5.1 ng/mL
same,level at 8 h,[5]; iv,1.52 ng/mL
same,AUC(0-t),"[5]; iv, Mean, mean of 3 rats",3780 ng·h/mL
same,AUC(0-t),"[5]; iv, individual rats",3770 ng·h/mL
same,MRT last,"[5]; iv, Mean, mean of 3 rats",33.4 min
same,MRT last,"[5]; iv, individual rats",32.1 min
same,HMGB1-induced TNF secretion (in words),[6],inhibits
same,APAP-induced pro-inflammatory cytokines (in words),[7]; FIG. 8,reduction
same,APAP-induced serum liver enzymes (in words),[7]; FIG. 8,reduction
same,APAP-induced lethality in mice (in words),[7]; FIG. 9,reduced
same,half-life,[8],> 900 min
"N[C@@H](Cc1ccccc1)C(=O)N[C@@H](CO)C(=O)N[C@@H](CO)C(=O)N[C@@H](CCC(=O)O)C(=O)O [FSSE, reference compound]",protection in animal studies (in words),[4],protective
same,half-life,[5],< 1 min
same,in vivo half-life,[9]; in vivo,less than 5 minutes
same,half-life,[8],60 min
RPPGFSPFR [bradykinin],metabolised at 3 h,[10],~97%
same,in vivo half-life,[9]; background statement,less than 1 minutes
NC(=O)N(Cc1ccccc1)NC(=O)N(Cc1ccccc1)NC(=O)[C@@H]1CCCN1C(=O)N(N)Cc1ccc(O)cc1 [K763],affinity for OPRM-1 compared with Endomorphin-2 (in words),[11],stronger affinity than Endomorphin-2
same,binding to OPRM-1 receptor (in words),[11],shown to bind
